Test results reported in ChEMBL document CHEMBL1134876, “Sequence selective recognition of DNA by hairpin conjugates of a racemic seco-cyclopropaneindoline-2-benzofurancarboxamide and polyamides” (Bioorg Med Chem Lett, 2002).

How the values were obtained:
[1] = tested on: L1210; assay: Cytotoxicity tested against L1210 (murine leukemia) cell line using MTT assay; format: functional, cell-based; details: Mus musculus
[2] = tested on: P815; assay: Cytotoxicity tested against P815 (murine mastocytoma) cell line using MTT assay; format: functional, cell-based; details: Mus musculus

| SMILES | IC50 [1] [µM] | IC50 [2] [µM] |
| --- | --- | --- |
| NCCCCNC(=O)c1nc(NC(=O)c2cc(NC(=O)CCCC(=O)Nc3ccc4oc(C(=O)N5CC(CCl)c6ccc(O)cc65)cc4c3)c[nH]2)c[nH]1 (stereo not drawn) | 6.7 | 9.1 |
| NCCCCNC(=O)c1cc(NC(=O)c2cc(NC(=O)CCCC(=O)Nc3ccc4oc(C(=O)N5CC(CCl)c6ccc(O)cc65)cc4c3)c[nH]2)c[nH]1 (stereo not drawn) | 28 | 41 |
| NCCCCNC(=O)c1nc(NC(=O)c2nc(NC(=O)CCCC(=O)Nc3ccc4oc(C(=O)N5CC(CCl)c6ccc(O)cc65)cc4c3)c[nH]2)c[nH]1 (stereo not drawn) | 6.8 | 52 |
| NCCCCNC(=O)c1cc(NC(=O)c2nc(NC(=O)CCCC(=O)Nc3ccc4oc(C(=O)N5CC(CCl)c6ccc(O)cc65)cc4c3)c[nH]2)c[nH]1 (stereo not drawn) | 45 | 77 |
